Measurements taken from patent US20260199274A1 (priority 2022, published 2026).

Legend:
IL-6 production [1] = test: hIL-6 ELISA in supernatants of IAV-infected BEAS-2B cells; type: cell-based, human
viral polymerase = viral polymerase (Influenza A virus, UniProt P03427+P03430+P15659); type: cell-based
[2] = test system: influenza A/pandemic/2009 H1N1 (H1N1p) strain; type: cell-based, influenza A virus
[3] = test system: A/Puerto Rico/8/1934 H1N1 (PR8) virus; type: cell-based, influenza A virus
[4] = test system: influenza B Yamagata (B/Paris/234/2013) virus; test: Plaque-Forming Units assay, BEAS-2B cells infected with IBV; type: cell-based; conditions: 3.4 mM for 16 h from 4 h post-infection
[5] = test system: ERK, AKT and NF-κB signaling pathways; test: Western blotting of phosphorylated ERK1/2, AKT and p65 in BEAS-2B cells; type: cell-based, human
[6] = test system: CCL2/MCP-1, CCL5/RANTES, CXCL1/GROa, CXCL10/IP-10, IL-6 and CXCL8/IL-8; test: Protein-array of immune mediators in supernatants of IAV-infected BEAS-2B cells; type: cell-based, human; conditions: 3.4 mM
IL-6 production [7] = test: IL-6 ELISA in BEAS-2B cells stimulated with inflammatory agonists (PIC, PMA, TNFα); type: cell-based, human; conditions: increasing doses of CA 16 h
BEAS-2B cells = test: BEAS-2B tolerance: Ki67, mitotracker, DHR 123 and Live Dead staining; type: cell-based, human
Procedure: (FIG. 8a) Human bronchial epithelial BEAS-2B cells were treated with PBS or with 3.4 mM of cis-aconitate (CA), itaconate (Ita), oxaloacetate (Oxa), isocitrate (IsoC), citrate (Cit), fumarate (Fum), pyruvate (Pyr) or glucose (Glc) for 16 h and cytotoxicity was assessed by MTS assay. BEAS-2B cells were treated (CA+) or not (CA-) with 3.4 mM of CA for 6 or 24 h (FIG. 8b, 8c, 8d) or with 0, 1.2, 2.3 or 3.4 mM of CA for 20 h (FIG. 8e). Cell proliferation (FIG. 8b), mitochondrial labeling (FIG. 8c), ROS production (FIG. 8d) and cell viability (FIG. 8e) were analyzed by Ki67, mitotracker, DHR 123 and Live Dead staining respectively. (FIG. 8f) Human primary bronchial epithelial cells (PBEC) were treated with 0.6, 3.4 or 5.7 mM CA for 16 h and cytotoxicity was assessed by a MTS test. Data are represented as mean±/−SEM of 4 (FIG. 8b-f) or 5 (FIG. 8a) independent experiments. Statistical analysis was performed using the Kruskal-Wallis test with Dunn's multiple comparison test (FIGS. 8a, 8e and 8f) or Friedman test with Dunn's multiple comparison test (FIG. 8b-8d).
Cell proliferation and cytotoxicity assays. Cells in 96-well plates were washed twice with PBS and incubated for 1 h at 37° C. with 100 μL of MTS reagent diluted 1/5 for the cell proliferation test. Optical density was measured at 490 nm. For the cytotoxicity assay, cells were stained for 15 min at 4° C. with Live/Dead or with anti-Ki67, mitotracker and […] flow cytometry analysis.

IL-6 production [8] = test: IL-6 ELISA in PBEC (IAV, poly(I:C) or PMA); type: cell-based, human
IAV-triggered cell death = type: cell-based, human
IL-6 production [9] = test: hIL-6 in IAV-infected human precision-cut lung slices (PCLS); type: cell-based; conditions: 3.4 mM CA 2 hpi, 48 hpi
[10] = test system: NF-kB activity / TNFα secretion; test: Murine model of acute lung injury induced by lipopolysaccharide; type: in vivo, mice; conditions: 10 μg LPS
Procedure: NF-kB transgenic Balb/c (FIG. 11a, 11b) or C57Bl/6 (FIG. 11c) mice were instilled with 10 μg of lipopolysaccharides (LPS) and treated 15 minutes post-stimulation with 0.6 mg of cis-aconitate (CA) intranasally. 24 h post-instillation, mice were anesthetized. In the group of NF-kB transgenic Balb/c animals, luciferine was intranasally instilled (0.75 mg·kg^−1) and bioluminescence was measured using the IVIS imaging system (FIG. 11a, 11b). In the group of C57Bl/6 mice, BALs fluids were collected to determine TNFα levels (FIG. 11c).). Bioluminescence was then measured using the IVIS system. […] Statistical analysis was performed using the Mann-Whitney test.
Then, we further examined the anti-inflammatory effect of cis-aconitate administered intranasally in a valuable murine model of acute lung injury induced by lipopolysaccharide ([63]), a cell wall component characteristic of Gram-negative bacteria.

[11] = test system: Wuhan strain of SARS-CoV-2; test: IL-6 ELISA in Vero epithelial cells infected with SARS-CoV-2 Wuhan strain; type: cell-based; conditions: MOI=1, 1 mg/ml cis-aconitate for 16 hours from 4 h post-infection
[12] = test system: Delta strain of SARS-CoV-2; type: cell-based
[13] = 0.6 mg intranasally every second day for 15 days

## O=C(O)/C=C(/CC(=O)O)C(=O)O [cis-aconitate]
IL-6 production [1]; BEAS-2B stimulated with IAV MOI=1, increasing doses of CA 16 h
  IL-6 production, dose-dependent: significant decrease
IL-6 production [1]; BEAS-2B, IAV MOI=1, 3.4 mM for 16 h
  IL-6 production of IAV-infected epithelial cells: reduced
Viral polymerase
  luciferase activity versus concentration: dose-dependent decrease
  reduction of luciferase activity (viral polymerase activity): ~ 75%
[2]
  viral particles production (PFU): at least one log decrease
[3]
  viral particles production (PFU): at least one log decrease
[4]
  viral particles production (PFU): at least one log decrease
[5]
  ERK, AKT and NF-κB signaling pathways: reductions
  accumulation of phosphorylated ERK1/2, Akt and p65: inhibited
[6]
  IAV-induced expression of CCL2/MCP-1, CCL5/RANTES, CXCL1/GROa, CXCL10/IP-10, IL-6 and CXCL8/IL-8: inhibited
IL-6 production [7]; BEAS-2B stimulated with 20 ng/ml TNFα
  IL-6 production, dose-dependent: trend
IL-6 production [7]; BEAS-2B stimulated with 50 nM PMA
  IL-6 production, dose-dependent: significant decrease
IL-6 production [7]; BEAS-2B stimulated with 2 μg/mL Poly (I:C)
  IL-6 production, dose-dependent: significant decrease
BEAS-2B cells; BEAS-2B, 0, 1.2, 2.3 or 3.4 mM, 20 h
  cell viability (Live Dead): did not impact
BEAS-2B cells; BEAS-2B, 3.4 mM, 6 or 24 h
  ROS production (DHR 123): did not impact
  cell proliferation (Ki67): did not impact
  mitochondria accumulation (mitotracker): did not impact
IL-6 production [8]
  reduction of IAV-induced hIL-6 production: up to 80%
IL-6 production [8]; PBEC, PMA 4 h, then CA 20 h
  pro-inflammatory cytokine (IL-6) expression induced by PMA: dose-dependent decrease
IL-6 production [8]; PBEC, poly(I:C) 4 h, then CA 20 h
  pro-inflammatory cytokine (IL-6) expression induced by PIC: dose-dependent decrease
IAV-triggered cell death
  reduction in SYTOX labeling (dead cells): approximately 70%
IL-6 production [9]
  reduction in IL-6 production: twofold
[10]; C57Bl/6 mice, 0.6 mg CA intranasally, 24 h
  TNFα secretion in the BAL fluids: significantly decreased
[10]; NF-kB transgenic Balb/c mice, 0.6 mg CA intranasally 15 minutes post-stimulation, 24 hours
  LPS-induced inflammation (NF-kB bioluminescence): markedly reduced
[11]
  IL-6 production: significant reduction
[12]
  IL-6 production: significant reduction
[13]
  adverse effects: no adverse effects
[13]; day 0, 7, 14
  overall fecal microbial composition (Aitchison distance): no differences
